In US10010527B2, “Active metabolite of 1-[(2-bromophenyl)sulfonyl]-5-methoxy-3-[(4-methyl-1-piperazinyl)methyl]-1H-indole dimesylate monohydrate and dimesylate dihydrate salt of active metabolite” (SUVEN LIFE SCIENCES LIMITED, priority 2014, dated 2018):

System: rats
Experiment: Radial arm maze (reversal of scopolamine induced amnesia)
Type: in vivo, rat
Conditions: p.o.
From the text: Example 4: Radial Arm Maze
The cognition enhancing properties of formula (I) and formula (II) of this invention were estimated by using this model.
Radial arm maze consists of a central hub of 45 centimeter diameter. Each arm was of dimension 42.5×15×24 centimeter. The maze was elevated to a height of 1 meter above the ground. The animals were placed on a restricted diet until they reached approximately 85% of their free feeding weight. During this diet restriction period animals were habituated to the novel feed (pellets). Once the rats reached approximately 85% of their free feeding weight rats were habituated to the maze on the 1st and 2nd day. […] Animals were randomized on day 2. On the subsequent days the treatment was given as per the allotment. Each animal was introduced into the maze individually for a period of 10 minutes. The arms were baited only once and the animal had to learn the rule that repeated arm entries would not be rewarded. The trial ended once the rat had visited 16 arms or 10 minutes were over or all the pellets were eaten. The arm entries were recorded using the software.

Row | SMILES | Reversal of Scopolamine Induced amnesia - Effective dose range | Reversal of Scopolamine Induced amnesia - Effective dose range (dimesylate dihydrate)
1 | COc1ccc2c(c1)c(CN1CCNCC1)cn2S(=O)(=O)c1ccccc1Br [Example 1, 1-[(2-Bromophenyl)sulfonyl]-5-methoxy-3-[(1-piperazinyl)methyl]-1H-indole] | 10-20 mg/kg, p.o. | 
2 | COc1ccc2c(c1)c(CN1CCNCC1)cn2S(=O)(=O)c1ccccc1Br [Example 2, 1-[(2-Bromophenyl)sulfonyl]-5-methoxy-3-[(1-piperazinyl)methyl]-1H-indole dimesylate dihydrate] |  | 5-20 mg/kg, p.o.
